Marks after values point to notes of the source that are not given here.
Columns and labels:
[1] = system: ILT3 expression on monocyte-derived immature dendritic cells; experiment: ILT3 upregulation on monocyte-derived immature dendritic cells (flow cytometry); assay type: cell-based, human; settings: 24 hours; for upregulation of ILT3 expression: graded doses, up to 1000 nM
Method: Immature dendritic cells (DC) were prepared as described in Romani, N. et al., (1996) J. Immunol. Meth. 196:137). Briefly, peripheral blood mononuclear cells (PBMCs) were obtained from a buffy coat by ficoll-hypaque gradient (Pharmacia Biotec AB, Upsala, Sweden) and monocytes isolated from PBMCs by negative selected with a monocyte isolation kit (Milteny, Biotech, Bergish Gladblach, Germany). After isolation, monocytes were cultured for 6 to 7 days at a cell density of 1-2×106 in RPMI medium supplemented with 5% FetalClone I (Hyclone Laboratories, Logan, Utah) 2 mM L-glutamine, […], 1 mM sodium pyruvate and 1% nonessential amino acids, containing 800 U/ml GM-CSF (Mielogen 300, Schering-Plough) and 10 ng/ml interleukin (IL)-4 (PharMingen, San Diego, Calif.). Every other day, approximately 20% of the medium was removed and replaced by the same volume of fresh medium containing GM-CSF and IL-4.
Immunoglobulin-like transcript-3 upregulation was evaluated by flow cytometric analysis. Briefly, cells were preincubated with […] human IgG (Sigma Chemical, St. Louis, Mo.) and subsequently stained with anti-human ILT3 antibody (see, e.g., Cella, M. et al. (1997) J. Exp. Med. 185:1743) followed by anti-mouse IgG-phycoerithryn (Jackson). Cells were then analyzed with a FACScanR flow cytometer using a Cell QuestR software program (both from Beckton Dickinson, Mountain View, Calif.).

[2] = system: HL-60 cells; experiment: HL-60 (CD14) cell differentiation; assay type: cell-based; settings: Homo sapiens, HL-60 cell differentiation, read-out: HL-60(CD14) ED50
[3] = system: IFN-γ production; experiment: IFN-γ production in the mixed leukocyte response (MLR); assay type: cell-based; settings: MLR of allogeneic PBMC, 5 days, ELISA; for IC50: 120 h, read-out: INF-γ IC50
Method: Immature dendritic cells (DC) were prepared as described in Romani, N. et al., J. Immunol. Meth.

[4] = system: RT112; experiment: Proliferation assay, bladder cancer cell line RT112; assay type: cell-based; settings: Homo sapiens, RT-112; 72 h culture, CyQuant proliferation assay
Method: (§1) Bladder cancer cell lines (T24, RT112, HT1376 and RT4 are human bladder cancer cell lines; NHEK are normal human keratinocytes) were obtained from the European Collection of Cell Cultures (Salisbury, UK). […] After a further 72 h of culture, cell proliferation was measured using a fluorescence-based proliferation assay kit. (CyQuant Cell Proliferation Assay Kit, Molecular Probes, Eugene, Oreg., USA). The IC50 was calculated from the regression curve of the titration data.

[5] = system: HT 1376; experiment: Proliferation assay, bladder cancer cell line HT 1376; assay type: cell-based; settings: Homo sapiens, 72 h culture, CyQuant proliferation assay
Method: as §1

[6] = system: RT4; experiment: Proliferation assay, bladder cancer cell line RT4; assay type: cell-based; settings: Homo sapiens, RT-4; 72 h culture, CyQuant proliferation assay
Method: as §1

[7] = system: NHEK; experiment: Proliferation assay, normal human keratinocytes NHEK; assay type: cell-based; settings: 72 h culture, CyQuant proliferation assay
Method: as §1

[8] = in vivo; settings: female, C57BL/6, mouse, po
[9] = biological target: T1, VDR (Homo sapiens, UniProt P11473); experiment: VDR binding; settings: 1,25(OH)2D3 100.0
T1 sequence (P11473 1-427): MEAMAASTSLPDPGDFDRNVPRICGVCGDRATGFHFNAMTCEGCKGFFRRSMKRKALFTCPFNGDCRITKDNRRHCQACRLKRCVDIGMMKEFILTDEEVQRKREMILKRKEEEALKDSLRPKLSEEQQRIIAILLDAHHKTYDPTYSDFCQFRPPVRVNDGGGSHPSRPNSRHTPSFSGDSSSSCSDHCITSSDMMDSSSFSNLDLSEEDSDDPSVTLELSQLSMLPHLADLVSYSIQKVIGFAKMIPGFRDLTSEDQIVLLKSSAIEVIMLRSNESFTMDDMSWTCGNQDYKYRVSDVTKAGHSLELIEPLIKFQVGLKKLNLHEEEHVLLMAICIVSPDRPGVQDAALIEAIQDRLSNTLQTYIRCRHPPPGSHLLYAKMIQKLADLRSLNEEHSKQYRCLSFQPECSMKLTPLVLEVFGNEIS

[10] = system: renin mRNA in As4.1hVDR cells; experiment: Renin suppression assay (renin mRNA, Northern blot); settings: 10^−10, 10^−9 and 10^−8 M, 24 hours
[11] = system: ECV; experiment: Proliferation assay, bladder cancer cell line ECV; assay type: cell-based; settings: Homo sapiens; 72 h culture, CyQuant proliferation assay

Compound | IC50 [3] [nM] | IC50 [4] [µM] | IC50 [6] [µM] | MTD [8] [mg/kg] | renin suppression activity compared with 1,25(OH)2D3 [10] | also measured
C=C1/C(=C\C=C2/CCC[C@]3(C)[C@@H]([C@@H](CCCC(C)(C)O)CC[C@@H](O)C(C)(C)O)CC[C@@H]23)C[C@@H](O)C[C@@H]1O (stereo in doubt) [Compound 2, 1,25-Dihydroxy-21-(2R,3-dihydroxy-3-methyl-butyl)-20S-cholecalciferol] | – | – | – | – | – | ILT3 mean fluorescence intensity ([1]; 1 nM of compound): 260; upregulation of ILT3 expression ([1]; listed as 1,24R,25-trihydroxy-20R-21-(3-hydroxy-3-methylbutyl)): very favourable upregulation; upregulation of ILT3 expression ([1]; listed as ix): greatest upregulation of ILT3
C=C1/C(=C\C=C2/CCC[C@]3(C)[C@@H]([C@H](C)CCCC(C)(C)O)CC[C@@H]23)C[C@@H](O)C[C@@H]1O [1,25(OH)2D3, reference compound] | 0.029 | 19 | 45 | – | – | EC50 [2]: 0.00137 µM; down regulation of INF-γ (class symbol) [3]: * (good down regulation of INF-γ (e.g., less than 100 IC50 pM)); IC50 [5]: 50 µM; IC50 [7]: 4.9 µM
C=C1/C(=C\C=C2/CCC[C@@]3(C)C2CC[C@@H]3C(CCCC(C)(C)O)CCCC(C)(C)O)CC(O)C[C@@H]1O (stereo partly shown) [Compound 1, 1,25-Dihydroxy-21-(3-hydroxy-3-methyl-butyl)-cholecalciferol, reference compound] | 0.022 | – | – | 0.003 | comparable to that of 1,25(OH)2D3 | EC50 [2]: 0.00034 µM; down regulation of INF-γ (class symbol) [3]: * (good down regulation of INF-γ (e.g., less than 100 IC50 pM)); VDR Binding [9]: 38.0**
C=C1/C(=C\C=C2/CCC[C@]3(C)[C@@H]([C@@H](CCCC(C)(C)O)CC[C@@H](O)C(C)(C)O)CC[C@@H]23)C[C@@H](O)C[C@@H]1O [Compound 2, 1,25-Dihydroxy-21-(2R,3-dihydroxy-3-methyl-butyl)-20S-cholecalciferol] | 0.549 | 1 | 62 | 0.03 | more potent in suppressing renin expression than 1,25(OH)2D3 | EC50 [2]: 0.0093 µM; IC50 [11]: 69.4 µM; IC50 [7]: 37.2 µM; VDR Binding [9]: 0.95**
C=C1/C(=C\C=C2/CCC[C@]3(C)[C@@H]([C@H](CCCC(C)(C)O)CC[C@@H](O)C(C)(C)O)CC[C@@H]23)C[C@@H](O)C[C@@H]1O [Compound 3, 1,25-Dihydroxy-21-(2R,3-dihydroxy-3-methyl-butyl)-20R-cholecalciferol] | 0.066 | 25 | 71 | 0.03 | comparable to that of 1,25(OH)2D3 | EC50 [2]: 0.00217 µM; down regulation of INF-γ (class symbol) [3]: * (good down regulation of INF-γ (e.g., less than 100 IC50 pM)); IC50 [11]: 57.9 µM; IC50 [5]: 98 µM; IC50 [7]: 46.5 µM; VDR Binding [9]: 42.10*
C=C1/C(=C\C=C2/CCC[C@@]3(C)C2CC[C@@H]3[C@H](CC#CC(O)(C(F)(F)F)C(F)(F)F)CCCC(C)(C)O)CC(O)C[C@@H]1O (stereo partly drawn) [Compound 4, 1,25-Dihydroxy-21-(3-hydroxy-3-trifluoromethyl-4-trifluoro-butynyl)-20S-cholecalciferol] | – | – | – | – | more potent in suppressing renin expression than 1,25(OH)2D3 | –
CC(C)(O)CCCC(CC#CC(O)(C(F)(F)F)C(F)(F)F)[C@H]1CCC2/C(=C/C=C3/CC(O)C[C@H](O)C3)CCC[C@@]21C (stereo partly drawn) [Compound 5, 1,25-Dihydroxy-21-(3-hydroxy-3-trifluoromethyl-4-trifluoro-butynyl)-20R-19-nor-cholecalciferol] | – | – | – | – | comparable to that of 1,25(OH)2D3 | –
CC(C)(O)CCC[C@@H](CC#CC(O)(C(F)(F)F)C(F)(F)F)[C@H]1CCC2/C(=C/C=C3/CC(O)C[C@H](O)C3)CCC[C@@]21C (stereo partly drawn) [Compound 6, 1,25-Dihydroxy-21-(3-hydroxy-3-trifluoromethyl-4-trifluoro-butynyl)-20S-19-nor-cholecalciferol] | – | – | – | – | more potent in suppressing renin expression than 1,25(OH)2D3 | –
C=C1/C(=C\C=C2/CCC[C@@]3(C)C2CC[C@@H]3C(CC#CC(O)(C(F)(F)F)C(F)(F)F)CCCC(C)(C)O)CC(O)C[C@@H]1O (stereo partly drawn) [Compound 11, 1,25-Dihydroxy-21-(3-hydroxy-3-trifluoromethyl-4-trifluorobutynyl)-20R-cholecalciferol] | – | – | – | – | comparable to that of 1,25(OH)2D3 | –
CC(C)(O)CCC[C@@H](CCC(=O)C(C)(C)O)[C@H]1CC[C@H]2/C(=C/C=C3C[C@@H](O)C[C@H](O)C3)CCC[C@]12C [Compound 12, 1,25-Dihydroxy-20S-21-(3-hydroxy-3-methyl-butyl)-24-keto-19-nor-cholecalciferol] | 2.97 | > 30 | 2.6 | 0.03 | – | –
C=C1/C(=C\C=C2/CCC[C@]3(C)[C@@H]([C@@H](CCCC(C)(C)O)CCC(=O)C(C)(C)O)CC[C@@H]23)C[C@@H](O)C[C@@H]1O [Compound 14, 1,25-Dihydroxy-20S-21-(3-hydroxy-3-methyl-butyl)-24-keto-cholecalciferol] | 0.35 | 25.5 | 8.3 | 0.03 | – | –
CC(C)(O)CCC[C@@H](CC[C@@H](O)C(C)(C)O)[C@H]1CC[C@H]2/C(=C/C=C3C[C@@H](O)C[C@H](O)C3)CCC[C@]12C [Compound 38, 1,25-Dihydroxy-21-(2R,3-dihydroxy-3-methyl-butyl)-20S-19-nor-cholecalciferol] | 3.86 | 44 | 72 | > 0.3 | – | IC50 [11]: 99.2 µM; IC50 [5]: > 100 µM; IC50 [7]: 57 µM
[2H]C([2H])([2H])C(O)(CCC[C@@H](CC#CC(O)(C(F)(F)F)C(F)(F)F)C1CCC2/C(=C/C=C3C[C@@H](O)C[C@H](O)C3)CCC[C@@]21C)C([2H])([2H])[2H] (stereo partly drawn) [Compound 39, 1,25-Dihydroxy-21(3-hydroxy-3-trifluoromethyl-4-trifluoro-butynyl)-26,27-hexadeutero-19-nor-20S-cholecalciferol] | 0.062 | 7 | 2.2 | 0.0003 | – | –
[2H]C([2H])([2H])C(O)(CCC[C@@H](CC#CC(O)(C(F)(F)F)C(F)(F)F)C1CCC2/C(=C/C=C3/C[C@@H](O)C[C@H](O)C3=C)CCC[C@@]21C)C([2H])([2H])[2H] (stereo partly drawn) [Compound 40, 1,25-Dihydroxy-21-(3-hydroxy-3-trifluoromethyl-4-trifluoro-butynyl)-26,27-hexadeutero-20S-cholecalciferol] | 0.062 | 6.4 | 2.2 | 0.0001 | – | –
COc1c(C)c2c(c(O)c1C/C=C(\C)CCC(=O)OCCN1CCOCC1)C(=O)OC2 [Mycophenolate Mofetil, reference compound] | – | – | – | – | – | upregulation of ILT3 expression [1]: fail to upregulate ILT3 expression at any concentration tested
